Assay results: BindingDB's records for doi:10.1021/jm058205b (Johnson & Johnson Pharmaceutical, 2005)

Tests used:
Assay in all cases: Kinase Inhibition Assay
[1] = target: Cyclin-dependent kinase/G2/mitotic-specific cyclin- 1 (Homo sapiens, UniProt P06493)
Experimental: (§1) The enzyme was assayed with a biotinylated peptide substrate and test compounds in the presence of 5 uM ATP/[gamma-33P]ATP in a streptavidin coated FlashPlate (Perkin-Elmer, Boston, MA). Inhibition of the enzymatic activity due to the compound was measured by observing a reduced amount of 33P-gamma-ATP incorporated into the immobilized peptide relative to untreated controls. Linear regression analysis of the percent of inhibition by the test compound was used to calculate IC50 values.

[2] = target: Vascular endothelial growth factor receptor 2 (Rattus norvegicus, UniProt O08775)
Experimental: as §1

[3] = target: Platelet-derived growth factor receptor beta (Homo sapiens, UniProt P09619)
Experimental: as §1

[4] = target: T1, Glycogen synthase kinase-3 beta [7-25] (Oryctolagus cuniculus, UniProt G1T8E2)
T1 construct: 7-25
Experimental: as §1

Chain of Cyclin-dependent kinase/G2/mitotic-specific cyclin- 1 (P06493 whole entry): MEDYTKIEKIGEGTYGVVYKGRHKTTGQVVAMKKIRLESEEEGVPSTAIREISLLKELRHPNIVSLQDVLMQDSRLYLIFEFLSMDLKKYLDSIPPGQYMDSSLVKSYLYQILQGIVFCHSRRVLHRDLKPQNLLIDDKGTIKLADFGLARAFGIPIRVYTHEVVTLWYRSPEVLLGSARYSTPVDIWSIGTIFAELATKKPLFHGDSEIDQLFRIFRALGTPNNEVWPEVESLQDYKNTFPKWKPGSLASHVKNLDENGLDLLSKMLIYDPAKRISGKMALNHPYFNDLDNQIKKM
Chain of Cyclin-dependent kinase/G2/mitotic-specific cyclin- 1 (P14635 whole entry, further chain): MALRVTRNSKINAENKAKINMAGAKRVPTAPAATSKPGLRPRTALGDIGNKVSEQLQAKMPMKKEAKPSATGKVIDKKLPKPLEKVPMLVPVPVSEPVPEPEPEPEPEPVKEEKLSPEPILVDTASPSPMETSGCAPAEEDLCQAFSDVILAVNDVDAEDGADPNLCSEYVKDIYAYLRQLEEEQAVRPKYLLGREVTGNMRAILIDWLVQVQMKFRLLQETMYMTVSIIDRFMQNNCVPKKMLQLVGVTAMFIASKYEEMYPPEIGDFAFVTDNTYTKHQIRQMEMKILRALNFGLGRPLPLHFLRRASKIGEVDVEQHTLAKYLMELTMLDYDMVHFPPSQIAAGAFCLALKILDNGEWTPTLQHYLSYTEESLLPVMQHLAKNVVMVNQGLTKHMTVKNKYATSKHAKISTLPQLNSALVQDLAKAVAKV
Chain of Vascular endothelial growth factor receptor 2 (O08775 whole entry): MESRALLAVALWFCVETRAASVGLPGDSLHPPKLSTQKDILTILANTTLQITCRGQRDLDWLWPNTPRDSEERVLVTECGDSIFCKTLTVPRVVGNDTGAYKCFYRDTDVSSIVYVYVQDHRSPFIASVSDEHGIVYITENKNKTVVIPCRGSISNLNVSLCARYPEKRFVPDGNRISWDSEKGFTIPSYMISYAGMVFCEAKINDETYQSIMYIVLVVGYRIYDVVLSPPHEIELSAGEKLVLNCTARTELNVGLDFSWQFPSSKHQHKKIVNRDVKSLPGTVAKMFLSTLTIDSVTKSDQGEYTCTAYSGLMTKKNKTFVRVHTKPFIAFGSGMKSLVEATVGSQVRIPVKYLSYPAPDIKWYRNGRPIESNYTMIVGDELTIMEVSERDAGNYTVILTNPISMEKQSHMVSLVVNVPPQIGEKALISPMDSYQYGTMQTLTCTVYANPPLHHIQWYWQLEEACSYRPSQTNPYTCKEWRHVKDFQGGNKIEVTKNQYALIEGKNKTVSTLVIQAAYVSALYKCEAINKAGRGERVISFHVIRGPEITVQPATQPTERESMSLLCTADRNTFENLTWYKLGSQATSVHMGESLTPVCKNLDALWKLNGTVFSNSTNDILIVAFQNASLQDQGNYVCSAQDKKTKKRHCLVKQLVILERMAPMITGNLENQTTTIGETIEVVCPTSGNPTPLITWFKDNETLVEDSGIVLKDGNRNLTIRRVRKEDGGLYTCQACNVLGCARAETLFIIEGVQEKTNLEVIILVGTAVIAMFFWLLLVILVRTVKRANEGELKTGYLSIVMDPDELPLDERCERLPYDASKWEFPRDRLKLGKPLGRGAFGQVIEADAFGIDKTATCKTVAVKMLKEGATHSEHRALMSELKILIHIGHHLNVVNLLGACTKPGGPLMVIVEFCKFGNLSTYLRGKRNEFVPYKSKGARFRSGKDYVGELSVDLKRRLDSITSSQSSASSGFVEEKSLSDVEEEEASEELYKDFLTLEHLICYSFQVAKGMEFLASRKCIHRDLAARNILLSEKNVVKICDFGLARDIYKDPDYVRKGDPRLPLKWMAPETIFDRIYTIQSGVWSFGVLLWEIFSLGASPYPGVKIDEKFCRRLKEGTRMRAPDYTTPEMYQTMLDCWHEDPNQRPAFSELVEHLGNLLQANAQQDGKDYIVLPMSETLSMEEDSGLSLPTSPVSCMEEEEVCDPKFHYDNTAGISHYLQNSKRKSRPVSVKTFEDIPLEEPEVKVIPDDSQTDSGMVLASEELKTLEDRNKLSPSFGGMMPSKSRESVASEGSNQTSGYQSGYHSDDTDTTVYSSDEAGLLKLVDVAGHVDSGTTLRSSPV
Chain of Platelet-derived growth factor receptor beta (P09619 whole entry): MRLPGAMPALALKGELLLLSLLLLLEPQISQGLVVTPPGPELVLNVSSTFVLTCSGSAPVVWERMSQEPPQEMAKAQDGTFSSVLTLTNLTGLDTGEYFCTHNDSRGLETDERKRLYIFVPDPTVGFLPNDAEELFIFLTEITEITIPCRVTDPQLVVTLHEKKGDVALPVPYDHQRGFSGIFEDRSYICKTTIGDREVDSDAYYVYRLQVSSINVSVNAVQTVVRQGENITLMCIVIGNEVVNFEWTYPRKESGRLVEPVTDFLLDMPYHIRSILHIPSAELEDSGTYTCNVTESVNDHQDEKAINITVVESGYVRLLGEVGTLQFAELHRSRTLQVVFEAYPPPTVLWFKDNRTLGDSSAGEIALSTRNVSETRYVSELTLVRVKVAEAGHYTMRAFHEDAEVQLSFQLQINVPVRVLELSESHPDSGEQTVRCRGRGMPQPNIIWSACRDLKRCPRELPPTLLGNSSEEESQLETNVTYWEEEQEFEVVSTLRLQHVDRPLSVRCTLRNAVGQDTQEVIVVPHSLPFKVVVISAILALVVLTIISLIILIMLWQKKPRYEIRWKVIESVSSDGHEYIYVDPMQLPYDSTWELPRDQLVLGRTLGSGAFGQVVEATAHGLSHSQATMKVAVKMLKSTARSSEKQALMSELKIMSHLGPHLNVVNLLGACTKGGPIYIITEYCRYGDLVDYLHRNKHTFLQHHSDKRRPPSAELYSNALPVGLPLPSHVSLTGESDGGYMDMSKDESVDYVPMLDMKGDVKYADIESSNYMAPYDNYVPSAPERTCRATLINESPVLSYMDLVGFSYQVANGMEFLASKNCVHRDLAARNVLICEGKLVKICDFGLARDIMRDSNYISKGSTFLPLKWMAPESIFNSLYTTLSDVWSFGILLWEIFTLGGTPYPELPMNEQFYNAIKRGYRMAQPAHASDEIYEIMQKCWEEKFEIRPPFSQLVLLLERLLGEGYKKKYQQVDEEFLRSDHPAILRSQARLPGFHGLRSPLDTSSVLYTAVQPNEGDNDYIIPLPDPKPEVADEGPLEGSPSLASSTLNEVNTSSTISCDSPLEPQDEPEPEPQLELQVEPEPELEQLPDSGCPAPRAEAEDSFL

SMILES	IC50 [1] [µM]	further results
OCCCNc1cnc(Cl)c(-c2cncc(Nc3cccc(Cl)c3)n2)c1 [3-[(6-chloro-5-{6-[(3-chlorophenyl)amino]pyrazin-2-yl}pyridin-3-yl)amino]propan-1-ol]	> 10	–
Clc1cccc(Nc2cncc(-c3cncc(NCCCn4cccn4)c3)n2)c1 [N-(3-Chlorophenyl)-6-[5-[[3-(1H-pyrazol-1-yl)propyl]-amino]-3-pyridinyl]-2-pyrazinamine]	> 10	–
OCCCNc1cnc(F)c(-c2cncc(Nc3cccc(Cl)c3)n2)c1 [3-{5-[6-(3-Chloro-phenylamino)-pyrazin-2-yl]-6-fluoropyridin-3-ylamino}-propan-1-ol]	> 10	–
OCCCNc1cncc(-c2cncc(Nc3ccccc3Cl)n2)c1 [3-{5-[6-(2-Chloro-phenylamino)-pyrazin-2-yl]-pyridin-3-ylamino}-propan-1-ol]	–	IC50 ([1]; pH 8, 30 °C): > 10 µM
Clc1cccc(Nc2cncc(-c3cncc(NCCCn4cncn4)c3)n2)c1 [N-(3-chlorophenyl)-6-(5-{[3-(1H-1,2,4-triazol-1-yl)propyl]amino}pyridin-3-yl)pyrazin-2-amine]	> 10	–
Clc1cccc(Nc2cncc(-c3cncc(NCCCN4CCOCC4)c3)n2)c1 [N-[5-[6-[(3-Chlorophenyl)amino]pyrazinyl]-3-pyridinyl]-4-morpholinepropanamine]	> 10	–
Nc1cncc(-c2cncc(Nc3cccc(Cl)c3)n2)c1 [[6-(5-Amino-pyridin-3-yl)-pyrazin-2-yl]-(3-chloro-phenyl)-amine]	–	IC50 ([1]; pH 8, 30 °C): > 10 µM
Clc1ccc(Nc2cncc(-c3cncc(NCCCc4ccncc4)c3)n2)cc1Cl [N-(3,4-dichlorophenyl)-6-(5-{[3-(pyridin-4-yl)propyl]amino}pyridin-3-yl)pyrazin-2-amine]	–	IC50 ([1]; pH 8, 30 °C): > 10 µM
O=C(COCc1ccccc1)Nc1cncc(-c2cncc(Nc3cccc(Cl)c3)n2)c1 [N-{5-[6-(3-Chloro-phenylamino)-pyrazin-2-yl]-pyridin-3-yl}-2-benzyloxy-acetamide]	> 10	–
COCCC(=O)Nc1cncc(-c2cncc(Nc3cccc(Cl)c3)n2)c1 [N-(5-{6-[(3-chlorophenyl)amino]pyrazin-2-yl}pyridin-3-yl)-3-methoxypropanamide]	> 10	–
CN1CCN(CCCNc2cncc(-c3cncc(Nc4cccc(Cl)c4)n3)c2)CC1 [N-(3-chlorophenyl)-6-(5-{[3-(4-methylpiperazin-1-yl)propyl]amino}pyridin-3-yl)pyrazin-2-amine]	> 10	–
OCCNc1cncc(-c2cncc(Nc3cccc(Cl)c3)n2)c1 [2-{5-[6-(3-Chloro-phenylamino)-pyrazin-2-yl]-pyridin-3-ylamino}-ethanol]	> 10	–
COc1cccc(Nc2cncc(-c3cncc(NCCCO)c3)n2)c1 [3-[[5-[6-[(3-Methoxyphenyl)amino]pyrazinyl]-3-pyridinyl]-1-propanol]	–	IC50 ([1]; pH 8, 30 °C): > 10 µM
Clc1cccc(Nc2cncc(-c3cncc(NCCCc4ccncc4)c3)n2)c1 [N-(3-chlorophenyl)-6-(5-{[3-(pyridin-4-yl)propyl]amino}pyridin-3-yl)pyrazin-2-amine]	–	IC50 ([1]; pH 8, 30 °C): > 10 µM
Clc1ccc(Nc2cncc(-c3cncc(NCCCc4ccncc4)c3)n2)cc1 [(4-Chloro-phenyl)-{6-[5-(3-pyridin-4-yl-propylamino)pyridin-3-yl]-pyrazin-2-yl}-amine]	–	IC50 ([1]; pH 8, 30 °C): > 10 µM
CN(C)CCCNc1cncc(-c2cncc(Nc3cccc(Cl)c3)n2)c1 [N-(3-chlorophenyl)-6-(5-{[3-(dimethylamino)propyl]amino}pyridin-3-yl)pyrazin-2-amine]	> 10	–

SMILES	IC50 [1] [µM]	further results
O=C(CCCNc1cncc(-c2cncc(Nc3cccc(Cl)c3)n2)c1)N1CCCCC1 [4-[(5-{6-[(3-chlorophenyl)amino]pyrazin-2-yl}pyridin-3-yl)amino]-1-(piperidin-1-yl)butan-1-one]	> 10	–
O=C(COc1ccccc1)Nc1cncc(-c2cncc(Nc3cccc(Cl)c3)n2)c1 [N-{5-[6-(3-Chloro-phenylamino)-pyrazin-2-yl]-pyridin-3-yl}-2-phenoxy-acetamide]	> 10	–
OCCCCNc1cncc(-c2cncc(Nc3cccc(Cl)c3)n2)c1 [4-[(5-{6-[(3-chlorophenyl)amino]pyrazin-2-yl}pyridin-3-yl)amino]butan-1-ol]	> 10	–
OCCCNc1cncc(-c2cncc(Nc3cccc(Cl)c3)n2)c1 [3-[[5-[6-[(3-chlorophenyl)amino]pyrazinyl]-3-pyridinyl]amino]-1-propanol]	> 10	–
Clc1cccc(Nc2cncc(-c3cncc(NCCCc4ccccc4)c3)n2)c1 [N-(3-chlorophenyl)-6-{5-[(3-phenylpropyl)amino]pyridin-3-yl}pyrazin-2-amine]	> 10	–
Clc1cccc(Nc2cncc(-c3cncc(NCCOc4ccccc4)c3)n2)c1 [(3-Chloro-phenyl)-{6-[5-(2-phenoxy-ethylamino)-pyridin-3-yl]-pyrazin-2-yl}-amine]	> 10	–
OCCCNc1cncc(-c2cncc(Oc3cccc(Cl)c3)n2)c1 [3-({5-[6-(3-chlorophenoxy)pyrazin-2-yl]pyridin-3-yl}amino)propan-1-ol]	–	IC50 ([1]; pH 8, 30 °C): > 10 µM
O=C(NCCCO)c1cncc(-c2cncc(Nc3cccc(Cl)c3)n2)c1 [5-[6-(3-Chloro-phenylamino)-pyrazin-2-yl]-N-(3-hydroxy-propyl)-nicotinamide]	> 10	–
Clc1cccc(Nc2cncc(-c3cncc(NCC4CCOCC4)c3)n2)c1 [N-(3-chlorophenyl)-6-{5-[(oxan-4-ylmethyl)amino]pyridin-3-yl}pyrazin-2-amine]	> 10	–
Nc1ncc(NCCCO)cc1-c1cncc(Nc2cccc(Cl)c2)n1 [3-[(6-amino-5-{6-[(3-chlorophenyl)amino]pyrazin-2-yl}pyridin-3-yl)amino]propan-1-ol]	> 10	–
CN(C)c1ccc(C(=O)Nc2cncc(-c3cncc(Nc4cccc(Cl)c4)n3)c2)cc1 [N-(5-{6-[(3-chlorophenyl)amino]pyrazin-2-yl}pyridin-3-yl)-4-(dimethylamino)benzamide]	> 10	IC50 [2]: > 10 µM
COCC(=O)Nc1cncc(-c2cncc(Nc3cccc(Cl)c3)n2)c1 [N-{5-[6-(3-Chloro-phenylamino)-pyrazin-2-yl]-pyridin-3-yl}-2-methoxy-acetamide]	> 10	–
OCCCNc1cncc(-c2cncc(Nc3cccc(F)c3)n2)c1 [3-[(5-{6-[(3-fluorophenyl)amino]pyrazin-2-yl}pyridin-3-yl)amino]propan-1-ol]	–	IC50 ([1]; pH 8, 30 °C): > 10 µM
CN(C)CCNc1cncc(-c2cncc(Nc3cccc(Cl)c3)n2)c1 [N-{5-[6-(3-Chloro-phenylamino)-pyrazin-2-yl]-pyridin-3-yl}-N ,N -dimethyl-ethane-1,2-diamine]	> 10	IC50 [3]: > 10 µM; IC50 [4]: > 10 µM
OCCCNc1cncc(-c2cncc(NCc3ccccc3)n2)c1 [3-[5-(6-Benzylamino-pyrazin-2-yl)-pyridin-3-yl-amino]-propan-1-ol]	–	IC50 ([1]; pH 8, 30 °C): > 10 µM
O=C(CO)Nc1cncc(-c2cncc(Nc3cccc(Cl)c3)n2)c1 [N-{5-[6-(3-Chloro-phenylamino)-pyrazin-2-yl]-pyridin-3-yl}-2-hydroxy-acetamide]	> 10	–
